Numbered stars: 1 amine (or outer) side, 2 acyl side, 3 side chain; on linkers, the order of the positions; unused ones are H or OH. Bridge positions count the residues as written; N and C are the ends. Side chains are listed from the residue outwards. Peptide text beside a SMILES is read from it. * marks the point of attachment. C20 diacid = O=C(O)CCCCCCCCCCCCCCCCCCC(=O)*; γGlu = O=C(O)[C@H](CCC(=O)[*:2])N[*:1]; AEEA = NCCOCCOCC(=O)O
How the values were obtained:
[1] = ASSAY (III) ThT fibrillation assay for physical stability; assay type: physicochemical
Procedure, shortened: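 Formulations with 1 μM ThT, pH adjusted as required, incubated at 37 °C with 960 rpm orbital shaking; fluorescence (ex 444/em 485 nm) read every 20 min. Fibrillation reported as mean ThT fluorescence ± SD of 4–8 replicates at time points; polypeptide concentration measured by reverse-phase HPLC before and after, post-centrifugation.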

[2] = target: T1, rat amylin receptor (rat calcitonin receptor + rat RAMP 3) (Rattus norvegicus, UniProt P32214+Q9JJ73); test: ASSAY (VI) binding to the rat amylin receptor; settings: for IC50: binding to rat amylin receptor, read-out: rAmylin-R bind IC50
T1 construct: expressed in transfected cells; host or cells: BHK tk'ts 13 (transient, FuGENE 6), membranes
T1 sequence (P32214 25-479 isoform P32214-2 limits assumed): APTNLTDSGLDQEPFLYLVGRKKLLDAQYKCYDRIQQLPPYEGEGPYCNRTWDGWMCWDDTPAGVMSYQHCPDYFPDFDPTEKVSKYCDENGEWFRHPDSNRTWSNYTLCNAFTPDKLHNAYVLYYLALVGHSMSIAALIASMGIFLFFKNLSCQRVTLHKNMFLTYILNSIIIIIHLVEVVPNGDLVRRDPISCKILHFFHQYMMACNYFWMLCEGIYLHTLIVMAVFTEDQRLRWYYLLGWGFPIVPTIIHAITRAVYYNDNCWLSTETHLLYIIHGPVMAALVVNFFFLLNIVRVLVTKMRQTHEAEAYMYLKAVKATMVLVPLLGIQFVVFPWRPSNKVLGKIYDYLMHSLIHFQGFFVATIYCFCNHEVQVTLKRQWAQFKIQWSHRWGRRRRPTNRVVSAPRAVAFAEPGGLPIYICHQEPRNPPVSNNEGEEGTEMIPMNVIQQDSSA
T1 sequence (Q9JJ73 23-147 partner): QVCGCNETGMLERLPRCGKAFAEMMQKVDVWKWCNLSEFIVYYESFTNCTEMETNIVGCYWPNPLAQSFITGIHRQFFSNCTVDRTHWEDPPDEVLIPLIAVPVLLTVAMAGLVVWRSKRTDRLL
Procedure, shortened: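 This assay measured binding to the rat amylin receptor. BHK tk′ts 13 cells were transiently transfected with the rat calcitonin receptor using FuGENE® 6 (Roche), following the manufacturer's recommendations. About 48 hours after transfection, the cells were harvested and membranes were prepared from them for the binding determination.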

[3] = Table 7, rat binding selectivity, rCTR IC50 / rAmylin-R IC50
[4] = Table 7a (preferred compounds), rat binding selectivity, rCTR IC50 / rAmylin-R IC50
[5] = ratio of rCTR bind IC50 to rAmylin-R bind IC50

ThT pH 4.0 lag time (h) [1] | IC50 ([2]; Table 7) | Ratio rCT/rAmylin binding [2, 3] | Ratio rCT/rAmylin binding [2, 4] | Ratio rCT/rAmylin binding [2, 5] | SMILES
25 h | 4.03 nM | 109.8 | 109.8 | 109.8 | CC[C@H](C)[C@H](NC(=O)[C@H](C)NC(=O)CNC(=O)[C@H](Cc1ccccc1)NC(=O)[C@H](CC(N)=O)NC(=O)[C@@H]1CCCN1C(=O)[C@H](CO)NC(=O)[C@H](CO)NC(=O)[C@H](Cc1c[nH]cn1)NC(=O)[C@H](CCCNC(=N)N)NC(=O)[C@H](CC(C)C)NC(=O)[C@H](Cc1ccccc1)NC(=O)[C@@H](NC(=O)[C@H](C)NC(=O)[C@H](CC(C)C)NC(=O)[C@H](CCCNC(=N)N)NC(=O)[C@H](CCC(N)=O)NC(=O)[C@@H](NC(=O)[C@H](C)NC(=O)[C@@H]1CSSC[C@H](NC(=O)[C@@H](N)CCCCNC(=O)COCCOCCNC(=O)CC[C@H](NC(=O)CCCCCCCCCCCCCCCCCCC(=O)O)C(=O)O)C(=O)N[C@@H](CC(N)=O)C(=O)N[C@@H]([C@@H](C)O)C(=O)N[C@@H](C)C(=O)N[C@@H]([C@@H](C)O)C(=O)N1)[C@@H](C)O)[C@@H](C)O)C(=O)N1CCC[C@H]1C(=O)N[C@@H](CO)C(=O)N[C@@H](CO)C(=O)N[C@H](C(=O)N1CCC[C@H]1C(=O)N[C@H](C(=O)NCC(=O)N[C@@H](CO)C(=O)N[C@@H](CC(N)=O)C(=O)N[C@H](C(=O)N[C@@H](Cc1ccc(O)cc1)C(N)=O)[C@@H](C)O)C(C)C)[C@@H](C)O [Example 75] (H-K([AEEA-γGlu-C20 diacid])CNTATCATQRLATFLRHSSPNFGAIPSSTPVGSNTY-NH2; disulfide 2-7 (inferred); N-terminus assumed)
22 h | 0.04 nM | 131.4 | 131.4 | 131.4 | CC[C@H](C)[C@H](NC(=O)[C@H](C)NC(=O)CNC(=O)[C@H](Cc1ccccc1)NC(=O)[C@H](CC(N)=O)NC(=O)[C@@H]1CCCN1C(=O)[C@H](CO)NC(=O)[C@H](CO)NC(=O)[C@H](Cc1c[nH]cn1)NC(=O)[C@H](CCCNC(=N)N)NC(=O)[C@H](CC(C)C)NC(=O)[C@H](Cc1ccccc1)NC(=O)[C@H](CC(N)=O)NC(=O)[C@H](C)NC(=O)[C@H](CC(C)C)NC(=O)[C@H](CCCNC(=N)N)NC(=O)[C@H](CCC(N)=O)NC(=O)[C@@H](NC(=O)[C@H](C)NC(=O)[C@@H]1CSSC[C@H](NC(=O)[C@@H](N)CCCCNC(=O)COCCOCCNC(=O)CC[C@H](NC(=O)CCCCCCCCCCCCCCCCCCC(=O)O)C(=O)O)C(=O)N[C@@H](CC(N)=O)C(=O)N[C@@H]([C@@H](C)O)C(=O)N[C@@H](C)C(=O)N[C@@H]([C@@H](C)O)C(=O)N1)[C@@H](C)O)C(=O)N1CCC[C@H]1C(=O)N[C@@H](CO)C(=O)N1CCC[C@H]1C(=O)N[C@H](C(=O)N[C@@H](CC(N)=O)C(=O)N[C@H](C(=O)NCC(=O)N1CCC[C@H]1C(=O)N[C@@H](CC(N)=O)C(=O)N[C@H](C(=O)N[C@@H](Cc1ccc(O)cc1)C(N)=O)[C@@H](C)O)C(C)C)[C@@H](C)O [Example 56] (H-K([AEEA-γGlu-C20 diacid])CNTATCATQRLANFLRHSSPNFGAIPSPTNVGPNTY-NH2; disulfide 2-7 (inferred); N-terminus assumed)
10 h | 0.246 nM | 74.1 | 74.1 | 74.1 | CC[C@H](C)[C@H](NC(=O)[C@H](C)NC(=O)CNC(=O)[C@H](Cc1ccccc1)NC(=O)[C@H](CC(N)=O)NC(=O)[C@@H]1CCCN1C(=O)[C@H](CO)NC(=O)[C@H](CO)NC(=O)[C@H](Cc1c[nH]cn1)NC(=O)[C@H](CCCNC(=N)N)NC(=O)[C@H](CC(C)C)NC(=O)[C@H](Cc1ccccc1)NC(=O)[C@H](Cc1c[nH]cn1)NC(=O)[C@H](C)NC(=O)[C@H](CC(C)C)NC(=O)[C@H](CCCNC(=N)N)NC(=O)[C@H](CCC(N)=O)NC(=O)[C@@H](NC(=O)[C@H](C)NC(=O)[C@@H]1CSSC[C@H](NC(=O)[C@@H](N)CCCCNC(=O)COCCOCCNC(=O)CCCCCCCCCCCCCCCCCCC(=O)O)C(=O)N[C@@H](CC(N)=O)C(=O)N[C@@H]([C@@H](C)O)C(=O)N[C@@H](C)C(=O)N[C@@H]([C@@H](C)O)C(=O)N1)[C@@H](C)O)C(=O)N1CCC[C@H]1C(=O)N[C@@H](CO)C(=O)N[C@@H](CO)C(=O)N[C@H](C(=O)N[C@@H](CC(N)=O)C(=O)N[C@H](C(=O)NCC(=O)N[C@@H](CO)C(=O)N[C@@H](CC(N)=O)C(=O)N[C@H](C(=O)N[C@@H](Cc1ccc(O)cc1)C(N)=O)[C@@H](C)O)C(C)C)[C@@H](C)O [Example 90]
45 h | 0.369 nM | 53.3 | 53.3 | 53.3 | CC[C@H](C)[C@H](NC(=O)[C@H](C)NC(=O)CNC(=O)[C@H](Cc1ccccc1)NC(=O)[C@H](CC(N)=O)NC(=O)[C@@H]1CCCN1C(=O)[C@H](CO)NC(=O)[C@H](CO)NC(=O)[C@H](Cc1c[nH]cn1)NC(=O)[C@H](CCCNC(=N)N)NC(=O)[C@H](CC(C)C)NC(=O)[C@H](Cc1ccccc1)NC(=O)[C@H](CC(N)=O)NC(=O)[C@H](C)NC(=O)[C@H](CC(C)C)NC(=O)[C@H](CCCNC(=N)N)NC(=O)[C@H](CCC(N)=O)NC(=O)[C@@H](NC(=O)[C@H](C)NC(=O)[C@@H]1CSSC[C@H](NC(=O)[C@H](CCCNC(=N)N)NC(=O)[C@@H](N)CCCCNC(=O)CC[C@H](NC(=O)CCCCCCCCCCCCCCCCCCC(=O)O)C(=O)O)C(=O)N[C@@H](CC(N)=O)C(=O)N[C@@H]([C@@H](C)O)C(=O)N[C@@H](C)C(=O)N[C@@H]([C@@H](C)O)C(=O)N1)[C@@H](C)O)C(=O)N1CCC[C@H]1C(=O)N[C@@H](CO)C(=O)N[C@@H](CO)C(=O)N[C@H](C(=O)N[C@@H](CC(N)=O)C(=O)N[C@H](C(=O)NCC(=O)N[C@@H](CO)C(=O)N[C@@H](Cc1c[nH]cn1)C(=O)N[C@H](C(=O)N[C@@H](Cc1ccc(O)cc1)C(N)=O)[C@@H](C)O)C(C)C)[C@@H](C)O [Example 44] (H-K([γGlu-C20 diacid])RCNTATCATQRLANFLRHSSPNFGAIPSSTNVGSHTY-NH2; disulfide 3-8)
11 h | 0.276 nM | 162.4 | 162.4 | 162.4 | CC[C@H](C)[C@H](NC(=O)[C@H](C)NC(=O)CNC(=O)[C@H](Cc1ccccc1)NC(=O)[C@H](CC(N)=O)NC(=O)[C@@H]1CCCN1C(=O)[C@H](CO)NC(=O)[C@H](CO)NC(=O)[C@H](Cc1c[nH]cn1)NC(=O)[C@H](CCCNC(=N)N)NC(=O)[C@H](CC(C)C)NC(=O)[C@H](Cc1ccccc1)NC(=O)CNC(=O)[C@H](C)NC(=O)[C@H](CC(C)C)NC(=O)[C@H](CCCNC(=N)N)NC(=O)[C@H](CCC(N)=O)NC(=O)[C@@H](NC(=O)[C@H](C)NC(=O)[C@@H]1CSSC[C@H](NC(=O)[C@@H](N)CCCCNC(=O)COCCOCCNC(=O)CC[C@H](NC(=O)CCCCCCCCCCCCCCCCCCC(=O)O)C(=O)O)C(=O)N[C@@H](CC(N)=O)C(=O)N[C@@H]([C@@H](C)O)C(=O)N[C@@H](C)C(=O)N[C@@H]([C@@H](C)O)C(=O)N1)[C@@H](C)O)C(=O)N1CCC[C@H]1C(=O)N[C@@H](CO)C(=O)N[C@@H](CO)C(=O)N[C@H](C(=O)N1CCC[C@H]1C(=O)N[C@H](C(=O)NCC(=O)N[C@@H](CO)C(=O)N[C@@H](CC(N)=O)C(=O)N[C@H](C(=O)N[C@@H](Cc1ccc(O)cc1)C(N)=O)[C@@H](C)O)C(C)C)[C@@H](C)O [Example 71] (H-K([AEEA-γGlu-C20 diacid])CNTATCATQRLAGFLRHSSPNFGAIPSSTPVGSNTY-NH2; disulfide 2-7)

— patent US9023789B2, “Amylin analogs and pharmaceutical compositions thereof” (Novo Nordisk A/S, priority 2012, dated 2015)
